Experimental findings from ChEMBL document CHEMBL4339236, “Colletopeptides A-D, Anti-inflammatory Cyclic Tridepsipeptides from the Plant Endophytic Fungus Colletotrichum sp. S8” (J Nat Prod, 2019) are described below.

One series deals with A549. Put plainly: Cytotoxicity against human A549 cells measured after 48 hrs by MTS assay. The series is classed as cell-based. Conditions: a549, 48 h. In general terms: Tetrazolium dyes change colour on reduction, which living cells bring about.
Series [1] deals with HepG2. The series can be described thus: Cytotoxicity against human HepG2 cells measured after 48 hrs by MTS assay. It counts as cell-based. Conditions: hepg2, 48 h.
The next series relates to Escherichia coli. The series can be described thus: Antibacterial activity against Colon bacillus measured after 24 hrs by broth microdilution assay. It counts as functional, organism-based.
The test system of series [2] is RAW264.7. Put plainly: Antiinflammatory activity in mouse RAW264.7 cells assessed as inhibition of LPS-induced IL-6 production preincubated for 12 hrs followed by LPS-stimulation and measured after 24 hrs by ELISA. The series is classed as functional, cell-based. (In general: ELISA stands for enzyme-linked immunosorbent assay.)
Series [3] addresses Histone deacetylase (Homo sapiens) (UniProt Q13547+O15379+Q9UBN7+Q92769+Q9UQL6+Q8WUI4+Q9BY41+Q96DB2+P56524+Q9UKV0+Q969S8). The series can be described thus: Inhibition of HDAC in human HeLa nuclear extracts using Boc-Lys(Ac)-AMC as substrate by fluorescence assay. It counts as cell-free.
The next series concerns HCT-116. The series can be described thus: Cytotoxicity against human HCT116 cells measured after 48 hrs by MTS assay. The settings on record: hct-116, 48 h. It counts as cell-based.
For series [4], the target named is T1, NF-kappa-B inhibitor alpha (Mus musculus) (UniProt Q9Z1E3).
T1 sequence (whole entry): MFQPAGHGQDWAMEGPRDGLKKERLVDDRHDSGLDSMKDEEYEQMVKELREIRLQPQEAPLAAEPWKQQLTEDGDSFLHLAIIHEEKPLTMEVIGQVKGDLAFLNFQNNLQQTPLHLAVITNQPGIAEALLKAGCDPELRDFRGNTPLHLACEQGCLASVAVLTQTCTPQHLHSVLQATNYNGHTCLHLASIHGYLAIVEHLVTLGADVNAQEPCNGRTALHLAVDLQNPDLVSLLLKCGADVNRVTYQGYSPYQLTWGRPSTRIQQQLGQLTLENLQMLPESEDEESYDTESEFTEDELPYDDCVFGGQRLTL
Put plainly: Inhibition of IkappaBalpha phosphorylation in LPS-stimulated mouse RAW264.7 cells at 20 to 40 uM preincubated for 12 hrs followed by LPS stimulation and measured after 24 hrs by Western blot analysis. The series is classed as cell-based.

The target of series [5] is Transcription factor p65 (Mus musculus) (UniProt Q04207). The series can be described thus: Inhibition of NFkappaB p65 phosphorylation in LPS-stimulated mouse RAW264.7 cells at 20 to 40 uM preincubated for 12 hrs followed by LPS stimulation and measured after 24 hrs by Western blot analysis. The series is classed as cell-based.
Chain of Transcription factor p65 (Mus musculus) (Q04207 whole entry): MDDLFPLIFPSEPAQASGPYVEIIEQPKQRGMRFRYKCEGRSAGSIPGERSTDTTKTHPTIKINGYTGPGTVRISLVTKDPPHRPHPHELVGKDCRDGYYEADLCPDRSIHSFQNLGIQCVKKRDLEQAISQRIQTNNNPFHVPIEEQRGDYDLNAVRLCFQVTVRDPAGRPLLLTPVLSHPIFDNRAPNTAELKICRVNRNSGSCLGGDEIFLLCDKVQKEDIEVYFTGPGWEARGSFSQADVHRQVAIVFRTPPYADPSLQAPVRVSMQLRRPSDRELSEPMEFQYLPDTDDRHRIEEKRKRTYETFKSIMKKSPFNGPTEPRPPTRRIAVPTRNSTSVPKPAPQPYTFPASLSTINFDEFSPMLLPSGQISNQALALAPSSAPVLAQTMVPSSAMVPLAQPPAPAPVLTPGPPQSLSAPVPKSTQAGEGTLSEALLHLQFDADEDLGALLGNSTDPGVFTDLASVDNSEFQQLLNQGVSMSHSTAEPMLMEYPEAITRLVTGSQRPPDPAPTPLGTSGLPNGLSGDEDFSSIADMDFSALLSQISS
Series [6] concerns RAW264.7. Put plainly: Antiinflammatory activity in mouse RAW264.7 cells assessed as inhibition of LPS-induced TNFalpha production preincubated for 12 hrs followed by LPS-stimulation and measured after 24 hrs by ELISA. It counts as functional, cell-based.
A further series deals with Aeromonas hydrophila. The series can be described thus: Antibacterial activity against Aeromonas hydrophila measured after 24 hrs by broth microdilution assay. It counts as functional, organism-based. For orientation: Dilution methods test growth across graded concentrations, often in twofold steps.
The next series concerns Bacillus subtilis. The series can be described thus: Antibacterial activity against Bacillus subtilis measured after 24 hrs by broth microdilution assay. The series is classed as functional, organism-based.
The subject of series [7] is HepG2. Put plainly: Lipid lowering activity in human HepG2 cells assessed as reduction in oleic acid-induced lipid accumulation after 24 hrs by oil red O staining based spectrophotometric method. The series is classed as functional, cell-based.
In series [8] the test system is RAW264.7. Put plainly: Antiinflammatory activity in mouse RAW264.7 cells assessed as inhibition of LPS-induced nitric oxide production preincubated for 12 hrs followed by LPS-stimulation and measured after 24 hrs by Griess assay. It counts as functional, cell-based.
A further series has as its system Staphylococcus aureus. The series can be described thus: Antibacterial activity against Staphylococcus aureus measured after 24 hrs by broth microdilution assay. The series is classed as functional, organism-based.
For a further series, the system named is MDA-MB-231. The series can be described thus: Cytotoxicity against human MDA-MB-231 cells measured after 48 hrs by MTS assay. The settings on record: mda-mb-231, 48 h. It counts as cell-based.
A further series concerns HeLa. Put plainly: Cytotoxicity against human HeLa cells measured after 48 hrs by MTS assay. It counts as cell-based.

Active and inactive are the calls of the source. The rule behind the calls is not given here.

Regarding `CC[C@H](C)[C@H]1C(=O)O[C@H]([C@@H](C)CCCC[C@@H](C)O)C[C@@H](O)[C@@H](C)C(=O)N[C@H](Cc2ccccc2)C(=O)N1C`, the Activity entry with A549, with HepG2 [1], in the series on HCT-116, in the series with MDA-MB-231 and in the series with HeLa was “Non-Toxic” in each case. Further, the outcome with Escherichia coli, in the series with Aeromonas hydrophila, with Bacillus subtilis and with Staphylococcus aureus was inactive. The inhibition result in the series with RAW264.7 [2] and in the series with RAW264.7 [6] was “Dose-dependent effect” throughout. Besides, in series [3], the inhibition entry is “inactive”. For the same molecule, the inhibition entry in [4] and in [5] was “Active” in each case. For the same molecule, the outcome in the series with HepG2 [7] was Active. Besides, in the series on RAW264.7 [8], the IC50 amounted to 8.3 µM.

As for `C[C@@H]1C[C@H]2[C@@H]3CCC4=CC(=O)C=C[C@]4(C)[C@@]3(F)[C@@H](O)C[C@]2(C)[C@@]1(O)C(=O)CO` [DEXAMETHASONE], the IC50 in the series on RAW264.7 [8] was found to be 18.4 µM.

Consider `CC(C)C[C@H]1C(=O)O[C@H]([C@@H](C)CCCC[C@@H](C)O)C[C@@H](O)[C@@H](C)C(=O)N[C@H](Cc2ccccc2)C(=O)N1C`, for which the Activity entry with A549, with HepG2 [1], with HCT-116, in the series with MDA-MB-231 and with HeLa was “Non-Toxic” in each case. For the same molecule, the outcome in the series with Escherichia coli, in the series with Aeromonas hydrophila, in the series on Bacillus subtilis and in the series with Staphylococcus aureus was inactive. Moreover, the inhibition result in series [3] is “inactive”. Besides, in the series with HepG2 [7], the outcome was Active. Further, the IC50 in the series with RAW264.7 [8] worked out at 38.7 µM.

For `CC(C)[C@H]1C(=O)O[C@H]([C@@H](C)CCCC[C@@H](C)O)C[C@@H](O)[C@@H](C)C(=O)N[C@H](Cc2ccccc2)C(=O)N1C`, the Activity result with A549, with HepG2 [1], in the series on HCT-116, in the series with MDA-MB-231 and in the series with HeLa was “Non-Toxic” each time. Moreover, the result with Escherichia coli, in the series with Aeromonas hydrophila, with Bacillus subtilis and in the series with Staphylococcus aureus was inactive. Further, the inhibition entry in series [3] is “inactive”. In addition, the inhibition result in [4] and in series [5] was “Active” in each case. The result in the series on HepG2 [7] was Active. Besides, the concentration for half-maximal inhibition (IC50) in the series on RAW264.7 [8] turned out to be 13.5 µM.

Take `CC[C@H](C)[C@H]1C(=O)O[C@@H](CCCCC[C@@H](C)O)C[C@@H](O)[C@@H](C)C(=O)N[C@H](Cc2ccccc2)C(=O)N1C`: the Activity entry in the series on A549, in the series on HepG2 [1], in the series with HCT-116, with MDA-MB-231 and with HeLa was “Non-Toxic” throughout. Besides, the outcome in the series on Escherichia coli, with Aeromonas hydrophila, with Bacillus subtilis and in the series with Staphylococcus aureus was inactive. In series [3], the inhibition result was “inactive”. Moreover, in the series on HepG2 [7], the result was Active. Besides, in the series with RAW264.7 [8], the IC50 was found to be 22.2 µM.

The IC50 is the point on the concentration scale where inhibition reaches its midpoint.
